Legend:
[1] = Potential characterization of nucleic acid lipid nanoparticle preparations; format: physicochemical
In short: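 Zeta potential was read on a Malvern ZEN3700 after diluting 20 μL lipid nanoparticle solution (about 0.04 mg/mL mRNA) into 780 μL ultrapure water. Alternatively, a 27.5 μL sample in 200 μL water was first sized by dynamic light scattering, then diluted with 600 μL more water for potential measurement.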

[2] = Particle size and PDI of nucleic acid lipid nanoparticle preparations by dynamic light scattering; format: physicochemical
In short: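 Size read by DLS after diluting the LNP preparation (approx. 0.04 mg/mL mRNA) in ultrapure water with gentle pipette mixing. The same sample, recovered and diluted further with water, was then used for zeta potential measurement.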

mice [3] = experiment: In vivo delivery of FLuc-circ-RNA lipid nanoparticles in mice; conditions: Fluc-circ-RNA LNP, IV
Experimental: Lipid nanoparticles loaded with nucleic acid drugs were prepared according to step 2, replacing FLuc-mRNA with FLuc-circ-RNA (Hongene Biotech Corporation, Shanghai). After formulation, the nanoparticles were administered via intramuscular injection (into the quadriceps femoris muscle of mice), intravenous injection (into the tail vein of mice), intraperitoneal injection, or subcutaneous injection (subcutaneously on the back). Approximately 75 μL was injected per mouse, with a total of 3 mice per group. In vivo imaging (PerkinElmer, IVIS Lumina III) was performed after a certain period of time. Ten to fifteen minutes before imaging, 200 μL of a 15 mg/mL D-Luciferin working solution was injected intraperitoneally, followed by imaging analysis using the in vivo imaging system.

mice [4] = experiment: In vivo delivery of FLuc-mRNA lipid nanoparticles in mice, in vivo imaging (IVIS)
In short: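 Mice (n=3) received about 75 μL FLuc-mRNA LNP per mouse intramuscularly (rectus femoris), intravenously (tail vein), intraperitoneally or subcutaneously (back). After injection, D-luciferin (200 μL, 15 mg/mL) was given i.p. 10-15 min before IVIS imaging.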

[5] = DMG-PEG2000:DSPC:Chol:compound 1.00:10.00:33.00:56.00, N/P 48
[6] = Fluc-circ-RNA LNP, preparation given IV
[7] = DMG-PEG2000:DSPC:Chol:Lipid 1.40:11.15:38.95:48.50, N/P 30, mRNA LNP
[8] = DMG-PEG2000:DSPC:Chol:Lipid 4.00:8.00:58.00:30.00, N/P 36, mRNA LNP
[9] = DMG-PEG2000:DSPC:Chol:Lipid 1.40:11.15:38.95:48.50, N/P 30, IV, liver
[10] = DMG-PEG2000:DSPC:Chol:Lipid 1.40:11.15:38.95:48.50, N/P 30, IV, lung
[11] = DMG-PEG2000:DSPC:Chol:Lipid 1.40:11.15:38.95:48.50, N/P 30, IV, spleen
[12] = DMG-PEG2000:DSPC:Chol:Lipid 4.00:8.00:58.00:30.00, N/P 36, IV, liver
[13] = DMG-PEG2000:DSPC:Chol:Lipid 4.00:8.00:58.00:30.00, N/P 36, IV, lung
[14] = DMG-PEG2000:DSPC:Chol:Lipid 4.00:8.00:58.00:30.00, N/P 36, IV, spleen

With CCCCCCCCCCCCNC(=O)C(O)CN(CCCN(CCO)CCCN(CC(O)C(=O)NCCCCCCCCCCCC)CC(O)C(=O)NCCCCCCCCCCCC)CC(O)C(=O)NCCCCCCCCCCCC (stereo not shown) [Compound L0281] the “Zeta potential (mV)” value [1, 5] was 14.67 mV, the “Zeta potential (mV)” value [1, 6] was 16.27 mV and the PDI [2, 7] was 0.13 ± 0.01. For the same compound, the Particle size [2, 7] was 118.73 ± 0.90 nm, the PDI [2, 8] was 0.11 ± 0.01 and the Particle size [2, 8] was 104.43 ± 0.96 nm. The PDI [2, 5] was 0.14, the “Particle size (nm)” value [2, 5] was 138.90 nm and the PDI [2, 6] was 0.19. For the same compound, the “Particle size (nm)” value [2, 6] was 152.1 nm, the “% of organ targeting” value (mice [3]; liver) was 0.74% and the “% of organ targeting” value (mice [3]; lung) was 96.58%. The “% of organ targeting” value (mice [3]; spleen) was 2.68%, the IVIS (mice [4]; DMG-PEG2000:DSPC:Chol:Lipid 1.40:11.15:38.95:48.50, N/P 30, IM, whole body scan) was 1.38 × 10^6 and the IVIS (mice [4]; DMG-PEG2000:DSPC:Chol:Lipid 1.40:11.15:38.95:48.50, N/P 30, IV, body (whole body scan)) was 6.41 × 10^7. For the same compound, the “% of organ targeting” value (mice [4]; [9]) was 1.91%, the IVIS (mice [4]; [9]) was 3.17 × 10^6 and the “% of organ targeting” value (mice [4]; [10]) was 93.34%. For the same compound, the IVIS (mice [4]; [10]) was 1.55 × 10^8, the “% of organ targeting” value (mice [4]; [11]) was 4.75% and the IVIS (mice [4]; [11]) was 7.89 × 10^6. For the same compound, the IVIS (mice [4]; DMG-PEG2000:DSPC:Chol:Lipid 4.00:8.00:58.00:30.00, N/P 36, IV, body) was 7.07 × 10^7, the “% of organ targeting” value (mice [4]; [12]) was 21.21% and the IVIS (mice [4]; [12]) was 1.28 × 10^7. The “% of organ targeting” value (mice [4]; [13]) was 1.08%, the IVIS (mice [4]; [13]) was 6.52 × 10^5 and the “% of organ targeting” value (mice [4]; [14]) was 77.71%. The IVIS (mice [4]; [14]) was 4.68 × 10^7, the IVIS (mice [4]; IV, body, DMG-PEG2000:DSPC:Chol:compound 1.00:10.00:33.00:56.00, N/P 48, Fluc-mRNA) was 4.66E+08 and the “% of organ targeting” value (mice [4]; IV, liver, DMG-PEG2000:DSPC:Chol:compound 1.00:10.00:33.00:56.00, N/P 48) was 0.73%. The IVIS (mice [4]; IV, liver, DMG-PEG2000:DSPC:Chol:compound 1.00:10.00:33.00:56.00, N/P 48, Fluc-mRNA) was 7.58E+06, the “% of organ targeting” value (mice [4]; IV, lung, DMG-PEG2000:DSPC:Chol:compound 1.00:10.00:33.00:56.00, N/P 48) was 97.70% and the IVIS (mice [4]; IV, lung, DMG-PEG2000:DSPC:Chol:compound 1.00:10.00:33.00:56.00, N/P 48, Fluc-mRNA) was 1.02E+09. For the same compound, the “% of organ targeting” value (mice [4]; IV, spleen, DMG-PEG2000:DSPC:Chol:compound 1.00:10.00:33.00:56.00, N/P 48) was 1.57%, the IVIS (mice [4]; IV, spleen, DMG-PEG2000:DSPC:Chol:compound 1.00:10.00:33.00:56.00, N/P 48, Fluc-mRNA) was 1.64E+07 and the “in vivo delivery efficiency as compared to the benchmark compound SM102” value (mice [4]; certain formulations, Table 2) was “superior in vivo delivery efficiency”. For the same compound, the “tissue-targeting specificity (lung vs spleen depending on molar percentage of compound)” value (mice [4]; certain formulations, Table 2) was “strong tissue-targeting specificity”.

Reference: patent US12233161B1, “Lipids and lipid nanoparticle formulations” (LONGUIDE BIOPHARMA CORPORATION, priority 2024, dated 2025)
